# Results: paper PMC1972348, “Pharmacokinetics and cytotoxicity of RSU-1069 in subcutaneous 9L tumours under oxic and hypoxic conditions” (British Journal of Cancer, 1991)
# Where two headings read alike, the source gives them in different places.
# Legend:
# sc 9L tumour cells [1] = system: sc 9L tumour cells; parameters: AUC30: unit not given beside the values
# Source text: (§1) Br 1 acr(91,6,4448?McilnPesLd,19 Pharmacokinetics and cytotoxicity of RSU-1069 in subcutaneous 9L tumours under oxic and hypoxic conditions K-H. Wong',*, C.J. Koch2, C. A. Wallen' & K.T. Wheeler' 'Experimental Radiation Oncology, Department of Radiology, Bowman Gray School of Medicine, Winston-Salem, North Carolina 27103; and 2Department of Radiation Oncology, University of Pennsylvania, Philadelphia, Pennsylvania 19104, USA. Summary The acute toxicity, pharmacokinetics and hypoxic cytotoxicity of RSU-1069 were investigated using the subcutaneous (sc) rat 9L tumour model. The pharmacokinetics were studied after i.p. injection of RSU-1069 (20mgkg-' or 100mgkg-'). […] The 2-nitroimidazoles, originally designed as electron affinic radiosensitisers, have been reported to selectively kill hypoxic cells (Adams et al., 1980). This hypoxic cytotoxicity appears to be related to the anaerobic bioreductive metabolism of the drugs that releases reactive cytotoxic metabolites (Clark et al., 1980; Brown, 1982). By adding an alkylating group to the side chain of a 2-nitroimidazole, Adams et al. (1984a,b) postulated that a more efficient chemopotentiator and killer of hypoxic cells could be made without the compound losing its ability to sensitise hypoxic cells to ionising radiation. RSU-1069 was one of the compounds synthesised to achieve this goal. RSU-1069 has an aziridine group attached via a side chain to a 2-nitroimidazole. […] Although the ability to kill cells in vivo has been studied (Adams et al., 1984a,b; Chaplin et al., 1986; Olive et al., 1987; Cole et al., 1989; Siemann, 1989) the presence of both oxic and hypoxic cells in these tumours has made it difficult to determine if the relative efficiency of RSU-1069 for killing oxic and hypoxic cells in vivo is similar to that reported in vitro. In this report, we used the subcutaneous (sc) 9L tumour model to study the relative ability of RSU-1069 to kill oxic and hypoxic tumours cells in vivo.
# 9L cells = assay: In vitro colony formation of 9L cells treated at defined oxygen concentrations; type: cell-based, rat
# Source text: Br 1 acr(91,6,4448?McilnPesLd,19 Pharmacokinetics and cytotoxicity of RSU-1069 in subcutaneous 9L tumours under oxic and hypoxic conditions K-H. Wong',*, C.J. Koch2, C. A. Wallen' & K.T. Wheeler' 'Experimental Radiation Oncology, Department of Radiology, Bowman Gray School of Medicine, Winston-Salem, North Carolina 27103; and 2Department of Radiation Oncology, University of Pennsylvania, Philadelphia, Pennsylvania 19104, USA. Summary The acute toxicity, pharmacokinetics and hypoxic cytotoxicity of RSU-1069 were investigated using the subcutaneous (sc) rat 9L tumour model. The pharmacokinetics were studied after i.p. injection of RSU-1069 (20mgkg-' or 100mgkg-'). […] The 2-nitroimidazoles, originally designed as electron affinic radiosensitisers, have been reported to selectively kill hypoxic cells (Adams et al., 1980). This hypoxic cytotoxicity appears to be related to the anaerobic bioreductive metabolism of the drugs that releases reactive cytotoxic metabolites (Clark et al., 1980; Brown, 1982). By adding an alkylating group to the side chain of a 2-nitroimidazole, Adams et al. (1984a,b) postulated that a more efficient chemopotentiator and killer of hypoxic cells could be made without the compound losing its ability to sensitise hypoxic cells to ionising radiation. RSU-1069 was one of the compounds synthesised to achieve this goal. […]
# [2] = B16 and HX 118 melanomas, ref Deacon et al., 1986; Walling et al., 1989; cited from earlier work
# [3] = ref Horwich et al., 1986, cited from earlier work
# [4] = KHT fibrosarcoma, ref Walton & Workman, 1988; cited from earlier work
# [5] = Source text: as §1
# hypoxic cells = system: hypoxic cells; parameters: method as in Adams et al., 1984a; settings: estimated at plasma level of 2-4 µg ml-1, ref Adams et al., 1984a; cited from earlier work
# other in vitro cells = system: other in vitro cells; parameters: method as in Stratford et al., 1986; settings: ref Stratford et al., 1986; cited from earlier work
# KHT and RIF tumours = system: KHT and RIF tumours; parameters: method as in Bremner et al. (1990); settings: tumours clamped 60 min after 80 mg kg-1, ref Bremner et al. (1990); cited from earlier work
# [6] = mice, i.p. doses of 50 and 100 mg kg-1, ref Walton & Workman (1988); cited from earlier work
# [7] = parameters: method as in Wong et al., 1989; 1990; settings: sc 9L tumours, ref Wong et al., 1989; 1990; cited from earlier work
# sc 9L tumour cells [8] = system: sc 9L tumour cells; parameters: method as in Wong et al., 1989; 1990; settings: Table I, clamped sc 9L tumours, ref Wong et al., 1989; 1990; cited from earlier work
# [9] = 20 mg kg-1 i.p., unclamped tumours
# [10] = 100 mg kg-1 i.p., unclamped tumours
# [11] = both doses (20 and 100 mg kg-1)
smiles,measurement,setting,value
O=[N+]([O-])c1nccn1CC(O)CN1CC1 (stereo not shown) [RSU-1069],cell survival,"sc 9L tumour cells [1]; 20 mg kg-1, clamped tumours",approximately 25%
same,cell survival,"sc 9L tumour cells [1]; 20 mg kg-1, unclamped tumours",~100%
same,cell-kill kinetics as a function of clamping time,"sc 9L tumour cells [1]; 50 mg kg-1, clamped for various times",little additional cell kill was achieved after 40 min of clamping
same,surviving fraction,"sc 9L tumour cells [1]; 50 mg kg-1, hypoxic (clamped 2 h)",~0.001
same,surviving fraction,"sc 9L tumour cells [1]; 50 mg kg-1, oxic (unclamped)",about 0.6
same,AUC30,"sc 9L tumour cells [1]; rat, in vivo",0.15
same,efficiency for killing hypoxic sc 9L tumour cells in situ relative to misonidazole or SR2508,"sc 9L tumour cells [1]; rat, in vivo, sc",300-1000 fold
same,"sensitiser enhancement ratio (SER), hypoxic vs oxic sc 9L cells in vivo","sc 9L tumour cells [1]; rat, in vivo, sc",4.8
same,SER in vitro,9L cells; 2.1% O2 vs less than 7.5 x 10(-3)% O2,approximately 50
same,SER in vitro,9L cells; 21% O2 vs less than 7.5 x 10(-3)% O2,approximately 100
same,tumour/plasma ratio,[2],3.7-4
same,peak plasma level,"[3]; clinical trial, after a 70 mg kg-1 dose (so in the source)",2 to 4 µg/mL
same,dose limited by nongenotoxic side-effects such as emesis,[3]; phase I clinical trial,less than 70 mg m-2
same,tumour/plasma ratio,[4],0.2-0.4
same,maximum tumour/plasma ratio,"[5]; 20 mg kg-1, in 60 min",six
same,plasma elimination t1/2,[5]; 20 mg kg-1 i.p.,47.8 ± 6.3 min
same,time to peak plasma concentration,[5]; 20 mg kg-1 i.p.,about 10 min
same,time to peak tumour concentration,[5]; 20 mg kg-1 i.p.,10 min
same,peak plasma concentration,"[5]; 20 mg kg-1 i.p., rat",3 micrograms ml-1
same,peak tumour concentration,[5]; [9],4 micrograms g-1
same,tumour elimination t1/2,[5]; [9],41.9 ± 6.1 min
same,time to return to unclamped tumour concentration after release of the clamp,[5]; 100 mg kg-1,about 60 min
same,tumour/plasma ratio in clamped tumours,"[5]; 100 mg kg-1, about 90 min after clamping",0.1
same,drug concentration in clamped tumours,"[5]; 100 mg kg-1, beyond 120 min after clamping",undetectable
same,peak tumour/plasma ratio,"[5]; 100 mg kg-1, unclamped, in about 45 min",exceeded four
same,time to peak plasma concentration,[5]; 100 mg kg-1 i.p.,approximately 25 min
same,peak plasma concentration,"[5]; 100 mg kg-1 i.p., rat",40 micrograms ml-1
same,tumour elimination t1/2,"[5]; 100 mg kg-1 i.p., tumour clamped 30 min after administration",10.9 ± 1.4 min
same,plasma elimination t1/2,"[5]; 100 mg kg-1 i.p., tumour unclamped",39.3 ± 11.1 min
same,peak tumour concentration,[5]; [10],50 micrograms g-1
same,time to peak tumour concentration,[5]; [10],30 min
same,tumour elimination t1/2,[5]; [10],36.1 ± 9.6 min
same,constant unclamped tumour/plasma ratio after the maximum,[5]; [11],about 2
same,maximum unclamped tumour/plasma ratio,[5]; [11],4-6
same,elimination from clamped sc 9L tumours faster than MISO or SR-2508,"[5]; rat, in vivo",four
same,peak plasma concentration at 100 mg kg-1 relative to 20 mg kg-1,"[5]; rat, in vivo",about 13 times
same,peak tumour concentration at 100 mg kg-1 relative to 20 mg kg-1,"[5]; rat, in vivo",about 13 times
same,radiosensitising enhancement ratio,hypoxic cells,1.2
same,SER in vitro,other in vitro cells,≤ 100
same,increase in time for tumours to reach four times their treatment size,KHT and RIF tumours,3-4 fold
same,difference in the volume of distribution,[6],2 fold
same,increase in the elimination t1/2,[6],37%
O=C(Cn1ccnc1[N+](=O)[O-])NCCO [SR-2508],time to return to unclamped tumour level after release of the clamp,[7],about 90 min
same,AUC30,sc 9L tumour cells [8],44.9 mg·min/mL
"COCC(O)Cn1ccnc1[N+](=O)[O-] (stereo not shown) [MISO, misonidazole]",time to return to unclamped tumour level after release of the clamp,[7],about 45 min
same,AUC30,sc 9L tumour cells [8],52.6 mg·min/mL
